Measurements published in the NIST ThermoML archive (doi:10.1021/je200093f).
“And” between values parts separate entries of the source, which are not always exact repeats. Identical values can stand only once.

What was measured:
[1] = 101.33 kPa, Liquid, Vibrating tube method
[2] = excess molar enthalpy (molar enthalpy of mixing); xn = mol fraction of the nth substance listed; conditions: 298.15 K, 101 kPa, Liquid, Calvet calorimetry
[3] = xn = mol fraction of the nth substance listed; conditions: 298.15 K, 101 kPa, Liquid, Vibrating tube method

Cn1ccnc1 [1-methylimidazole]
Conditions	mass density [kg/m3]
[1], 298.15 K	1031.14

Cn1ccnc1 [1-methylimidazole] + CO
Conditions	excess molar enthalpy, x1 = 0.005084	excess molar enthalpy, x1 = 0.007607 [kcal/mol]	excess molar enthalpy, x1 = 0.01012 [kcal/mol]	excess molar enthalpy, x1 = 0.01261 [kcal/mol]	excess molar enthalpy, x1 = 0.0151 [kcal/mol]	mass density, x1 = 0.005084	mass density, x1 = 0.007607	mass density, x1 = 0.01012	mass density, x1 = 0.01261	mass density, x1 = 0.0151
[2]	-0.00838 kcal/mol and -0.00841 kcal/mol	-0.0126	-0.0167	-0.0208	-0.0249	–	–	–	–	–
[3]	–	–	–	–	–	789.231 kg/m3 and 789.234 kg/m3	790.606 kg/m3 and 790.615 kg/m3	791.972 kg/m3 and 791.975 kg/m3	793.304 kg/m3 and 793.323 kg/m3	794.617 kg/m3 and 794.633 kg/m3

Cn1ccnc1 [1-methylimidazole] + O
Conditions	excess molar enthalpy, [2] [kcal/mol]	mass density, [3] [kg/m3]
x1 = 0.001133	-0.00255	997.279
x1 = 0.001134	-0.00254	997.281
x1 = 0.002264	-0.00507	997.513
x1 = 0.002265	-0.00505	997.514
x1 = 0.003392	-0.00759	997.75
x1 = 0.003394	-0.00757	997.75
x1 = 0.004518	-0.0101	997.985
x1 = 0.00452	-0.01	997.986
x1 = 0.005642	-0.0126	998.222
x1 = 0.005644	-0.0125	998.246
x1 = 0.006765	-0.015	998.459
x1 = 0.006766	-0.015	998.483

Cc1cccc(C)n1 [2,6-dimethylpyridine]
Conditions	mass density [kg/m3]
[1], 298.15 K	918.19

Cc1cccc(C)n1 [2,6-dimethylpyridine] + CO
Conditions	excess molar enthalpy, [2]	mass density, [3]
x1 = 0.001741	-0.00321 kcal/mol and -0.00319 kcal/mol	–
x1 = 0.003476	-0.00637 kcal/mol and -0.00641 kcal/mol	788.131 kg/m3 and 788.126 kg/m3
x1 = 0.005205	-0.0096 kcal/mol	788.964 kg/m3
x1 = 0.005206	-0.00957 kcal/mol	788.971 kg/m3
x1 = 0.006928	-0.0128 kcal/mol	789.788 kg/m3
x1 = 0.006929	-0.0127 kcal/mol	789.802 kg/m3
x1 = 0.008643	-0.0159 kcal/mol	790.602 kg/m3
x1 = 0.008647	-0.0159 kcal/mol	790.625 kg/m3
x1 = 0.01035	-0.019 kcal/mol	791.405 kg/m3
x1 = 0.01036	-0.019 kcal/mol	791.414 kg/m3

Cc1cccc(C)n1 [2,6-dimethylpyridine] + O
Conditions	excess molar enthalpy, [2] [kcal/mol]	mass density, [3] [kg/m3]
x1 = 0.000772	-0.00277	996.946
x1 = 0.000773	-0.00281	996.945
x1 = 0.001543	-0.00565	996.862
x1 = 0.001544	-0.00567	996.861
x1 = 0.002312	-0.00855	996.792
x1 = 0.002314	-0.0086	996.791
x1 = 0.00308	-0.0115	996.732
x1 = 0.003083	-0.0115	996.734
x1 = 0.003847	-0.0144	996.685
x1 = 0.003851	-0.0144	996.684
x1 = 0.004615	-0.0173	996.644
x1 = 0.004618	-0.0173	996.644

Cc1cccnc1 [3-methylpyridine]
Conditions	mass density [kg/m3]
[1], 298.15 K	952.61

Cc1cccnc1 [3-methylpyridine] + CO
Conditions	excess molar enthalpy, [2] [kcal/mol]	mass density, [3]
x1 = 0.002075	–	787.397 kg/m3
x1 = 0.004143	-0.00457	788.32 kg/m3
x1 = 0.004144	-0.00455	788.293 kg/m3
x1 = 0.006201	-0.00684	789.24 kg/m3
x1 = 0.006203	-0.00681	789.213 kg/m3
x1 = 0.008251	-0.00912	790.158 kg/m3
x1 = 0.008253	-0.00905	790.117 kg/m3
x1 = 0.01029	-0.0113	791.057 kg/m3 and 791.007 kg/m3
x1 = 0.01232	-0.0135	791.892 kg/m3

Cc1cccnc1 [3-methylpyridine] + O
Conditions	excess molar enthalpy, [2]	mass density, [3]
x1 = 0.000922	-0.00213 kcal/mol and -0.00212 kcal/mol	997.03 kg/m3 and 997.031 kg/m3
x1 = 0.001842	-0.00422 kcal/mol and -0.0042 kcal/mol	997.017 kg/m3 and 997.018 kg/m3
x1 = 0.00276	-0.00626 kcal/mol	997.008 kg/m3
x1 = 0.002761	-0.00629 kcal/mol	997.007 kg/m3
x1 = 0.003677	-0.00828 kcal/mol	996.999 kg/m3
x1 = 0.003678	-0.00833 kcal/mol	996.998 kg/m3
x1 = 0.004592	-0.0103 kcal/mol	996.991 kg/m3
x1 = 0.004594	-0.0103 kcal/mol	996.989 kg/m3
x1 = 0.005507	-0.0122 kcal/mol	996.982 kg/m3
x1 = 0.005509	-0.0122 kcal/mol	996.98 kg/m3

Cc1ccncc1 [4-methylpyridine]
Conditions	mass density [kg/m3]
[1], 298.15 K	949.87

Cc1ccncc1 [4-methylpyridine] + CO
Conditions	excess molar enthalpy, [2]	mass density, [3]
x1 = 0.004138	-0.00498 kcal/mol	788.325 kg/m3
x1 = 0.004139	-0.00496 kcal/mol	788.319 kg/m3
x1 = 0.006195	-0.00746 kcal/mol and -0.00747 kcal/mol	789.246 kg/m3 and 789.247 kg/m3
x1 = 0.008243	-0.00988 kcal/mol	790.15 kg/m3
x1 = 0.008244	-0.00991 kcal/mol	790.152 kg/m3
x1 = 0.01028	-0.0123 kcal/mol	791.066 kg/m3 and 791.039 kg/m3
x1 = 0.01231	-0.0146 kcal/mol	791.923 kg/m3
x1 = 0.01232	-0.0146 kcal/mol	791.924 kg/m3

Cc1ccncc1 [4-methylpyridine] + O
Conditions	excess molar enthalpy, [2]	mass density, [3]
x1 = 0.000919	-0.00217 kcal/mol and -0.00216 kcal/mol	997.023 kg/m3 and 997.024 kg/m3
x1 = 0.001837	-0.00432 kcal/mol and -0.00429 kcal/mol	997.005 kg/m3
x1 = 0.002753	-0.0064 kcal/mol	996.988 kg/m3
x1 = 0.002754	-0.0064 kcal/mol	996.988 kg/m3
x1 = 0.003667	-0.00843 kcal/mol	996.972 kg/m3
x1 = 0.003668	-0.00844 kcal/mol	996.971 kg/m3
x1 = 0.00458	-0.0105 kcal/mol	996.955 kg/m3 and 996.956 kg/m3
x1 = 0.005492	-0.0124 kcal/mol	996.939 kg/m3

CN1CCOCC1 [N-methylmorpholine]
Conditions	mass density [kg/m3]
[1], 298.15 K	914.15

CN1CCOCC1 [N-methylmorpholine] + CO
Conditions	excess molar enthalpy, [2]	mass density, [3]
x1 = 0.001834	–	787.377 kg/m3 and 787.359 kg/m3
x1 = 0.003662	-0.00519 kcal/mol	788.239 kg/m3
x1 = 0.003663	-0.0052 kcal/mol	788.267 kg/m3
x1 = 0.005484	-0.00777 kcal/mol and -0.00772 kcal/mol	789.159 kg/m3 and 789.119 kg/m3
x1 = 0.007298	-0.0103 kcal/mol	790.004 kg/m3
x1 = 0.007299	-0.0103 kcal/mol	790.044 kg/m3
x1 = 0.009104	-0.0128 kcal/mol	790.862 kg/m3
x1 = 0.009108	-0.0128 kcal/mol	790.908 kg/m3
x1 = 0.0109	-0.0152 kcal/mol	791.711 kg/m3
x1 = 0.01091	-0.0152 kcal/mol	791.753 kg/m3

CN1CCOCC1 [N-methylmorpholine] + O
Conditions	excess molar enthalpy, [2] [kcal/mol]	mass density, [3] [kg/m3]
x1 = 0.000812	-0.00565	997.058
x1 = 0.000813	-0.00565	997.058
x1 = 0.001623	-0.0113	997.074
x1 = 0.001624	-0.0113	997.074
x1 = 0.002433	-0.0169	997.095
x1 = 0.002434	-0.0168	997.094
x1 = 0.003242	-0.0224	997.121
x1 = 0.004048	-0.0279	997.151
x1 = 0.00405	-0.0279	997.153
x1 = 0.004854	-0.0335	997.187
x1 = 0.004858	-0.0334	997.188

CN1CCCCC1 [N-methylpiperidine]
[1]
Conditions	mass density [kg/m3]
288.15 K	821.53
293.15 K	817.22
298.15 K	812.62
303.15 K	808.16
308.15 K	803.61

CN1CCCCC1 [N-methylpiperidine] + CO
Conditions	excess molar enthalpy, [2]	mass density, [3] [kg/m3]
x1 = 0.001664	-0.00412 kcal/mol and -0.00411 kcal/mol	786.815
x1 = 0.003322	-0.00819 kcal/mol	787.153
x1 = 0.003323	-0.00814 kcal/mol	787.15
x1 = 0.004975	-0.0122 kcal/mol	787.488
x1 = 0.004976	-0.0122 kcal/mol	787.486
x1 = 0.006622	-0.0162 kcal/mol	787.816
x1 = 0.006624	-0.0161 kcal/mol	787.816
x1 = 0.008264	-0.0201 kcal/mol	788.141
x1 = 0.008266	-0.0201 kcal/mol	788.139
x1 = 0.0099	-0.024 kcal/mol	788.458
x1 = 0.009904	-0.0239 kcal/mol	788.454

CN1CCCCC1 [N-methylpiperidine] + O
Conditions	excess molar enthalpy, [2] [kcal/mol]	mass density, [3] [kg/m3]
x1 = 0.000735	-0.00509	996.66
x1 = 0.000736	-0.00513	996.651
x1 = 0.000737	-0.00512	996.658
x1 = 0.00147	-0.0102	996.261
x1 = 0.001471	-0.0103	996.253
x1 = 0.001473	-0.0102	996.26
x1 = 0.002202	-0.0154	995.866
x1 = 0.002206	-0.0155	995.858
x1 = 0.002208	-0.0154	995.862
x1 = 0.002934	-0.0206	995.483
x1 = 0.002939	-0.0206	995.482
x1 = 0.002942	-0.0206	995.47
x1 = 0.003666	-0.0258	995.109
x1 = 0.003671	-0.0258	995.097
x1 = 0.003675	-0.0259	995.081
x1 = 0.004398	-0.0308	994.752
x1 = 0.004404	-0.0309	994.733
x1 = 0.004409	-0.031	994.716
